Source: ChEMBL document CHEMBL5360648, “Identification of 5-HT2 Serotonin Receptor Modulators through the Synthesis of a Diverse, Tropane- and Quinuclidine-alkaloid-Inspired Compound Library” (J Med Chem, 2023)

Tests used:
[1] = biological target: T1, 5-hydroxytryptamine receptor 2C (Homo sapiens, UniProt P28335); assay: Antagonist activity at 5-HT2C receptor in HEK293 cells assessed as calcium mobilisation by Fluo-4 dye based assay; type: functional, cell-based
T1 sequence (P28335 whole entry): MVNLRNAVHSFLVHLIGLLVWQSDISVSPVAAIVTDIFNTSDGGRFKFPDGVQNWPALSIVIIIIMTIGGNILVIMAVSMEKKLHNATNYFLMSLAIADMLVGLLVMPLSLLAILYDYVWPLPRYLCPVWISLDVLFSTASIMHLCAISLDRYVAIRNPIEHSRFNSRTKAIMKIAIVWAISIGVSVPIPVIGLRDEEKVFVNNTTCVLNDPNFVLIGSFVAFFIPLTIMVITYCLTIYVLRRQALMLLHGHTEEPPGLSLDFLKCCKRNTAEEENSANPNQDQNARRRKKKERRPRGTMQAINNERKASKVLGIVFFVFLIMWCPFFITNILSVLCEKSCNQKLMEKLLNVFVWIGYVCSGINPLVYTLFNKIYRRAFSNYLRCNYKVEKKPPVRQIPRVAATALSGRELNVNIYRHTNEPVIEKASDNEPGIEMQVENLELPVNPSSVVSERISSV

[2] = biological target: T2, 5-hydroxytryptamine receptor 2A (Homo sapiens, UniProt P28223); assay: Agonist activity at 5-HT2A receptor in HEK293 cells assessed as calcium mobilisation by Fluo-4 dye based assay
[3] = biological target: T2, 5-hydroxytryptamine receptor 2A; assay: Antagonist activity at 5-HT2A receptor in HEK293 cells assessed as calcium mobilisation by Fluo-4 dye based assay; type: functional, cell-based
[4] = biological target: Neuronal acetylcholine receptor; alpha4/beta2 (Homo sapiens) (UniProt P17787+P43681); assay: Inhibition of [3H]epibatidine from binding to human nACh receptor alpha4beta2 expressed in HEK293 cell membrane at 10 uM incubated for 2.5 hrs by liquid scintillation counting analysis relative to control; type: cell membranes
[5] = biological target: Neuronal acetylcholine receptor; alpha3/beta4 (Rattus norvegicus) (UniProt P04757+P12392); assay: Inhibition of [3H]epibatidine from binding to rat nACh receptor alpha3beta4 expressed in HEK293 cell membrane at 10 uM incubated for 2.5 hrs by liquid scintillation counting analysis relative to control; type: cell membranes
[6] = biological target: T3, Muscarinic acetylcholine receptor M5 (Homo sapiens) (UniProt P08912); assay: Inhibition of [3H]4-DAMP from binding to M5 receptor (unknown origin) at 10 uM relative to control
T3 sequence (whole entry): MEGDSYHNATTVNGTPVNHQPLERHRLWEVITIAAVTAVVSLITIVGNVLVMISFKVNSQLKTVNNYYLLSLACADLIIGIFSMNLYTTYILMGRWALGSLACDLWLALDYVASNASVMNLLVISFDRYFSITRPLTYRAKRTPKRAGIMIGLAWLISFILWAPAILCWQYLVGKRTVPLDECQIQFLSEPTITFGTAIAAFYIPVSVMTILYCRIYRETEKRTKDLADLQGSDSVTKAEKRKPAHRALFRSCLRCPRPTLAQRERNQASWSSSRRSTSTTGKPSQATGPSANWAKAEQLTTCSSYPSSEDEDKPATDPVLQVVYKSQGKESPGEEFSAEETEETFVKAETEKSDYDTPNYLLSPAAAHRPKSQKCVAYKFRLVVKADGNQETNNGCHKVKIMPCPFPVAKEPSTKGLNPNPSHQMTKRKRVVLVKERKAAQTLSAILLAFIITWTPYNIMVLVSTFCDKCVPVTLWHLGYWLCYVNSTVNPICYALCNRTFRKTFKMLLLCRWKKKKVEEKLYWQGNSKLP

[7] = biological target: 5-hydroxytryptamine receptor 7 (Homo sapiens) (UniProt P34969); assay: Inhibition of [3H]LSD from binding to 5-HT7 receptor (unknown origin) at 1 uM relative to control
[8] = biological target: 5-hydroxytryptamine receptor 6 (Homo sapiens) (UniProt P50406); assay: Inhibition of [3H]LSD from binding to 5-HT6 receptor (unknown origin) at 10 uM relative to control
[9] = biological target: Muscarinic acetylcholine receptor M3 (Homo sapiens) (UniProt P20309); assay: Inhibition of [3H]4-DAMP from binding to M3 receptor (unknown origin) at 10 uM relative to control
[10] = biological target: 5-hydroxytryptamine receptor 4 (Homo sapiens) (UniProt Q13639); assay: Inhibition of [3H]GR113808 from binding to 5-HT4E receptor (unknown origin) at 10 uM relative to control
[11] = biological target: T4, Muscarinic acetylcholine receptor M2 (Homo sapiens) (UniProt P08172); assay: Inhibition of [3H]AF-DX384 from binding to M2 receptor (unknown origin) at 10 uM relative to control
T4 sequence (whole entry): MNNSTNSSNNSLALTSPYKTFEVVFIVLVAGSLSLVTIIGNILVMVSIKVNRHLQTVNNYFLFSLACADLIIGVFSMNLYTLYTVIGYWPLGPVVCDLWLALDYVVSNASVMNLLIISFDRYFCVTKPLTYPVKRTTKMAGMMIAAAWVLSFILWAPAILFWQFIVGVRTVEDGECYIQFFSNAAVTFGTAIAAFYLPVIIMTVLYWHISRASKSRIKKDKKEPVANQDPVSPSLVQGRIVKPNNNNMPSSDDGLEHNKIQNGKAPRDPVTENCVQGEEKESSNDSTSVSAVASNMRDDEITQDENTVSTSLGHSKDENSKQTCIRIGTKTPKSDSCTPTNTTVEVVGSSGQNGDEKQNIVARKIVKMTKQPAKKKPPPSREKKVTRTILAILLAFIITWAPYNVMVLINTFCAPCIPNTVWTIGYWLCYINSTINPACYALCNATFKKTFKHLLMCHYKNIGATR

[12] = biological target: 5-hydroxytryptamine receptor 2B (Homo sapiens) (UniProt P41595); assay: Inhibition of [3H]mesulergine from binding to 5-HT2B receptor (unknown origin) at 10 uM relative to control
[13] = Antagonist activity at 5-HT-induced 5-HT2B signaling in CHO cells by IP1 assay; conditions: Cricetulus griseus
[14] = biological target: T5, Muscarinic acetylcholine receptor M4 (Homo sapiens) (UniProt P08173); assay: Inhibition of [3H]4-DAMP from binding to M4 receptor (unknown origin) at 10 uM relative to control
T5 sequence (whole entry): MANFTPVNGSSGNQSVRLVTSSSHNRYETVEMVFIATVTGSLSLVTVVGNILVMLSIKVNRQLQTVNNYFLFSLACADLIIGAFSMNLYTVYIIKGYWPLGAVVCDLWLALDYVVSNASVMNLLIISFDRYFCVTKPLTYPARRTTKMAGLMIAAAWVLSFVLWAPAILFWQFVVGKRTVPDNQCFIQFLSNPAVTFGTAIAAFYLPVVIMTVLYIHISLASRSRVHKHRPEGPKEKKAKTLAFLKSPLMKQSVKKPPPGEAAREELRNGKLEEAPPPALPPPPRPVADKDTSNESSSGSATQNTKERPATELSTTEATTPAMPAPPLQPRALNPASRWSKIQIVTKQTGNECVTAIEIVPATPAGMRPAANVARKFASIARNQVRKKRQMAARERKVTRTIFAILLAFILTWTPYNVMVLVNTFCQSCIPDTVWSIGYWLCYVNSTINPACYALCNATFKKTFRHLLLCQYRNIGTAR

[15] = biological target: T6, 5-hydroxytryptamine receptor 1A (Homo sapiens) (UniProt P08908); assay: Inhibition of [3H]-8-OH-DPAT from binding to 5-HT1A receptor (unknown origin) at 10 uM relative to control
T6 sequence (whole entry): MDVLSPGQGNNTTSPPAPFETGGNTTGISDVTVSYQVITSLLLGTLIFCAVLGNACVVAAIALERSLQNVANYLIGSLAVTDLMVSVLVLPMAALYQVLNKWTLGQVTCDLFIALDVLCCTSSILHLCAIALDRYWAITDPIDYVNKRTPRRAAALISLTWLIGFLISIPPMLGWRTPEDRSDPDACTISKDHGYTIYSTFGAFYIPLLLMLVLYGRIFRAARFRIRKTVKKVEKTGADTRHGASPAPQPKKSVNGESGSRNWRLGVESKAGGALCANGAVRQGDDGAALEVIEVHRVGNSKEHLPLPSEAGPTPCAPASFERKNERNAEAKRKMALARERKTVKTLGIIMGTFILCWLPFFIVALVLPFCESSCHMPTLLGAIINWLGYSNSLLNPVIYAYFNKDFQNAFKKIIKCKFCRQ

[16] = biological target: 5-hydroxytryptamine receptor 7 (Homo sapiens) (UniProt P34969); assay: Inhibition of [3H]LSD from binding to 5-HT7 receptor (unknown origin) at 10 uM relative to control
[17] = species on record: Homo sapiens; assay: Inhibition of [3H]BRL43694 from binding to 5-HT3 receptor (unknown origin) at 10 uM relative to control
[18] = biological target: 5-hydroxytryptamine receptor 5A (Homo sapiens) (UniProt P47898); assay: Inhibition of [3H]LSD from binding to 5-HT5A receptor (unknown origin) at 10 uM relative to control
[19] = biological target: T7, Muscarinic acetylcholine receptor M1 (Homo sapiens) (UniProt P11229); assay: Inhibition of [3H]pirenzepine from binding to M1 receptor (unknown origin) at 10 uM relative to control
T7 sequence (whole entry): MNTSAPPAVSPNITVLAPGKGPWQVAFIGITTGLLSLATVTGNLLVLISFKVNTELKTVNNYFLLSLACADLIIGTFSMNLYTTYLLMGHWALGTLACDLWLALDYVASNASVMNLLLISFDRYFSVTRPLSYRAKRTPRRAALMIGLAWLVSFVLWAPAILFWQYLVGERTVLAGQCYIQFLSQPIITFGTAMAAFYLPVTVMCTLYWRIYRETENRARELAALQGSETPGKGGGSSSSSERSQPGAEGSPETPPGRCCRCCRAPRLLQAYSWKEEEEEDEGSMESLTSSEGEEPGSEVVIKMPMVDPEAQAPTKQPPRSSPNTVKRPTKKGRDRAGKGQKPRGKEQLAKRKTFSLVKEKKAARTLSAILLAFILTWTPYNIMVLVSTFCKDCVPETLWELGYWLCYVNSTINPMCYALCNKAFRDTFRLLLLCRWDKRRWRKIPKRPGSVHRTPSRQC

T2 sequence (P28223 whole entry): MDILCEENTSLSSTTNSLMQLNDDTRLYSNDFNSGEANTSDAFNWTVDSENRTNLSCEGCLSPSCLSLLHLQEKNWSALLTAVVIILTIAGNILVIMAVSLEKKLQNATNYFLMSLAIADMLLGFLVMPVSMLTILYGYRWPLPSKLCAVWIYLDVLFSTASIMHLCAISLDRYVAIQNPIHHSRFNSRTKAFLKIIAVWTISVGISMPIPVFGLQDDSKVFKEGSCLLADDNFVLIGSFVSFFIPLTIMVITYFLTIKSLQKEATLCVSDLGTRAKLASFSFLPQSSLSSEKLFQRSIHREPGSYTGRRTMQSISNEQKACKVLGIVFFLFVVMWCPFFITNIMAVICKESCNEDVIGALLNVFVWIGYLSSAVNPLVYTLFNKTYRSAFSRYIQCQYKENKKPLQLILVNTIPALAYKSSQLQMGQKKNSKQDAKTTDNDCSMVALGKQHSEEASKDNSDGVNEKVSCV
Chain of 5-hydroxytryptamine receptor 7 (Homo sapiens) (P34969 whole entry): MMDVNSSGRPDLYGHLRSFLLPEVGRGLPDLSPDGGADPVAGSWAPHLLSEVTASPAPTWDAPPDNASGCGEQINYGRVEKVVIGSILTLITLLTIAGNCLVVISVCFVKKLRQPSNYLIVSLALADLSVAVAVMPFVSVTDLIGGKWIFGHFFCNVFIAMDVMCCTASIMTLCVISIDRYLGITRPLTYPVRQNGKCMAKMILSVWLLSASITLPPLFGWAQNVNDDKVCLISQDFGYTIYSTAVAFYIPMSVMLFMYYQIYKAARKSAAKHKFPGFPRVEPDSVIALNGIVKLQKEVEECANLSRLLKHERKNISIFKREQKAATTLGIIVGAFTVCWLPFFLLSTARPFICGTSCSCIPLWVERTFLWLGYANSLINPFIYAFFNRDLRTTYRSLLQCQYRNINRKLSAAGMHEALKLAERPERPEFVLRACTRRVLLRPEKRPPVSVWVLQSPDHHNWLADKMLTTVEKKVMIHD
Chain of Muscarinic acetylcholine receptor M3 (Homo sapiens) (P20309 whole entry, looked up): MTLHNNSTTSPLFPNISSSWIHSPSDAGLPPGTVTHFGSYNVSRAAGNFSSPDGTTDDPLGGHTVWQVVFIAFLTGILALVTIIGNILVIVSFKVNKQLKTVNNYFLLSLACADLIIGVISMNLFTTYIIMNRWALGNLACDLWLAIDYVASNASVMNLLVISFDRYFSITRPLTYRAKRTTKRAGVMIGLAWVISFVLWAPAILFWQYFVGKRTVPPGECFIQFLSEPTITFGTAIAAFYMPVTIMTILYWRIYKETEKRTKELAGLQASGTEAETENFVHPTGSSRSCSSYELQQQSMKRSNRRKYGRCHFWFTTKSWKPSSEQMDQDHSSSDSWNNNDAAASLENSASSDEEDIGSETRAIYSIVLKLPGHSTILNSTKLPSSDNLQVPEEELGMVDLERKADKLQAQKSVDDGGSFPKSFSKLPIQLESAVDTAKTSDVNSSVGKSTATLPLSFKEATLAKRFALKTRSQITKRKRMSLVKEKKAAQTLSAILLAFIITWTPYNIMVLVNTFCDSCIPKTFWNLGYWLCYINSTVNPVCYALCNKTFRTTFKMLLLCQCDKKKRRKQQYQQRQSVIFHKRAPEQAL
Chain of 5-hydroxytryptamine receptor 6 (Homo sapiens) (P50406 whole entry): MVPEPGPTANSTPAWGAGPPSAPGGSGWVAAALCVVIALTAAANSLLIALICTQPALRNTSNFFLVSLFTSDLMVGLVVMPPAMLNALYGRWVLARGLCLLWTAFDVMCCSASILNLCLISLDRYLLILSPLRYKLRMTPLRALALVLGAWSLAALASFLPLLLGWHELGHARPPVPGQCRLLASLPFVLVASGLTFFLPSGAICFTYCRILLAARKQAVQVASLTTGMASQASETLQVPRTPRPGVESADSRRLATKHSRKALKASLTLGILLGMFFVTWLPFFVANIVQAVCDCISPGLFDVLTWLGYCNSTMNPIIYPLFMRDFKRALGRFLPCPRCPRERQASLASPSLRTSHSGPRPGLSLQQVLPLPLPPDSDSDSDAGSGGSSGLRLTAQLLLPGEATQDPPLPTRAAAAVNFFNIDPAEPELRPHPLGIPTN
Chain of 5-hydroxytryptamine receptor 4 (Homo sapiens) (Q13639 whole entry): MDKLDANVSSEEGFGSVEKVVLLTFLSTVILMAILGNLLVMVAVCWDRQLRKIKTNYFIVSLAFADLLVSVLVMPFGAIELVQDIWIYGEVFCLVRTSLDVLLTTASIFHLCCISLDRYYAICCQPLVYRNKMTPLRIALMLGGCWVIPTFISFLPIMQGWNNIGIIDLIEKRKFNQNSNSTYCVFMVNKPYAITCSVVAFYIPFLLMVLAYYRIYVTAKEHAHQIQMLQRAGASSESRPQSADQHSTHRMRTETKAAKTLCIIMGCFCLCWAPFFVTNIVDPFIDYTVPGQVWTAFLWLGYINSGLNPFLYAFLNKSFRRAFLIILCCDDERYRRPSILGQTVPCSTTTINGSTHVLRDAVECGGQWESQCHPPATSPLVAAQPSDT
Chain of 5-hydroxytryptamine receptor 2B (Homo sapiens) (P41595 whole entry): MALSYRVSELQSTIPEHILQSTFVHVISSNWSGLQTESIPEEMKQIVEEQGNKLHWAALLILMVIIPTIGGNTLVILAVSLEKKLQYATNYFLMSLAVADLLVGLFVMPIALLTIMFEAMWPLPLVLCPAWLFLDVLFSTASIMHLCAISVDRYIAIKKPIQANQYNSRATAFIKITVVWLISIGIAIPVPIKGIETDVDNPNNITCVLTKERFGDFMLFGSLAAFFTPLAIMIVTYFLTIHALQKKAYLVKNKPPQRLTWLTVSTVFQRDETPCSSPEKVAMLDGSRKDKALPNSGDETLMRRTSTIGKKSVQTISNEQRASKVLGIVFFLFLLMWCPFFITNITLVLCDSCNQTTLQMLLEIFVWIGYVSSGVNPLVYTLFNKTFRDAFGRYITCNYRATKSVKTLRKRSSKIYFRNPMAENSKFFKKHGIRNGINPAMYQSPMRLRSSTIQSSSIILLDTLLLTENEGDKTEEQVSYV
Chain of 5-hydroxytryptamine receptor 5A (Homo sapiens) (P47898 whole entry): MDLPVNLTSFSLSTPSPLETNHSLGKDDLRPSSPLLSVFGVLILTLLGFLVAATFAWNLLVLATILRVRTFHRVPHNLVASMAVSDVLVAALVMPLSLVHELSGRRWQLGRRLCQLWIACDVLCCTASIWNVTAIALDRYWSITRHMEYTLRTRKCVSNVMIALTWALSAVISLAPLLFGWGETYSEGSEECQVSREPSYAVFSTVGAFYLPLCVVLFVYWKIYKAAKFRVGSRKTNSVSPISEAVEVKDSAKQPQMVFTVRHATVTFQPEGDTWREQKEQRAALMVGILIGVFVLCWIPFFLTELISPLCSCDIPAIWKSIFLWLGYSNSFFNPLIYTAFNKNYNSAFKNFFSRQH

Row | SMILES | IC50 [1] | IC50 [3] | further results
1 | COc1ccc2c(c1)O[C@]1(CC2=O)CN2CCC1CC2 | 0.52 µM | > 30 µM | EC50 [2]: > 30 µM
2 | O=C1C[C@]2(CN3CCC2CC3)Oc2cc3ccccc3cc21 | > 100 µM | 50 µM | –
3 | O=C1C[C@]2(CN3CCC2CC3)Oc2cc(O)ccc21 | 2.5 µM | > 100 µM | –
4 | O=C1CC2(CN3CCC2CC3)Oc2c1ccc1ccccc21 (racemic) | 0.18 µM | 20 µM | –
5 | O=C1C[C@]2(CN3CCC2CC3)Oc2cc(OCC3CC3)ccc21 | 1.5 µM | > 100 µM | –
6 | O=C1NC2(CN3CCC2CC3)Nc2ccccc21 (stereo not given) | – | – | inhibition [4]: > 50%; inhibition [5]: > 50%
7 | O=C1C[C@@]2(CN3CCC2CC3)Oc2c1ccc1ccccc21 | 50 µM | > 100 µM | –
8 | O=C1C[C@]2(CN3CCC2CC3)Oc2ccc(Br)cc21 | > 10 µM | > 10 µM | –
9 | O=C1C[C@]2(CN3CCC2CC3)Oc2ccc(F)cc21 | > 10 µM | > 10 µM | –
10 | O=C1C[C@]2(CN3CCC2CC3)Oc2c1ccc1ccccc21 | 0.095 µM | 50 µM | inhibition [6]: 69%; inhibition [7]: 67%; inhibition [8]: 57%; inhibition [9]: 27%; inhibition [10]: 42%; inhibition [11]: 31%; inhibition [12]: 99%; IC50 [13]: 0.135 µM; inhibition [14]: 67%; inhibition [15]: 57%; inhibition [16]: 92%; inhibition [17]: 85%; inhibition [18]: 64%; inhibition [19]: 67%
11 | O=C1C[C@]2(CN3CCC2CC3)Oc2ccccc21 | > 10 µM | > 10 µM | –
12 | COc1cccc2c1C(=O)C[C@]1(CN3CCC1CC3)O2 | 5 µM | > 100 µM | –
13 | Cc1ccc2c(c1)O[C@]1(CC2=O)CN2CCC1CC2 | 2.5 µM | > 100 µM | –
14 | COc1ccc2c(c1)C(=O)C[C@]1(CN3CCC1CC3)O2 | > 10 µM | > 10 µM | –
15 | O=C1C[C@]2(CN3CCC2CC3)Oc2cc(Br)ccc21 | 2.3 µM | 15 µM | –
